Converted amounts (≈) assume the structure as drawn. Where a SMILES comes first, the peptide text is derived from it. Bridges are numbered along the chain shown (N, C = ends). [ ]: non-standard residue; d: D form. The star is where a group is joined. X14 = NC[C@@H](CC(=O)*)c1cccc(-c2ccsc2)c1; X23 = NC[C@H](CC(=O)*)c1cccc(-c2ccsc2)c1; X18 = NC[C@@H](CC(=O)*)c1cc(Cl)cc(Cl)c1; X22 = CC(C)Cc1cccc([C@H](CN)CC(=O)*)c1; X24 = NCC[C@@H](C(=O)*)c1ccc(Cl)cc1; X25 = NCC[C@@H](C(=O)*)c1cccc(Cl)c1; dNle = CCCC[C@@H](N)C(=O)O; Dab = NCC[C@H](N)C(=O)O; Abu = CC[C@H](N)C(=O)O; Dap = NC[C@H](N)C(=O)O
What was measured:
P. aeruginosa CCUG 59347 = assay type: cell-based; conditions: CCUG 59347
Method: (§1) The inoculum was prepared by making a direct suspension of isolated colonies (selected from an 18-24 hour Mueller-Hinton agar plate) adjusted to the 0.5 McFarland standard. […] The assays were performed in duplicate. […] Several of the compounds were subjected to multiple tests, and where this is the case, the MIC presented is the median value obtained. The MIC values are quoted in μg/mL.

K. pneumoniae CA64 = assay type: cell-based; conditions: CA64
Method: as §1

E. coli CA58 = assay type: cell-based; conditions: CA58
Method: as §1

P. aeruginosa ATCC 27853 = assay type: cell-based; conditions: ATCC 27853
Method: (§2) The inoculum was prepared by making a direct suspension of isolated colonies (selected from an 18-24 hour Mueller-Hinton agar plate) adjusted to the 0.5 McFarland standard. […] The assays were performed in duplicate. […] The MIC values are quoted in μg/mL.

E. coli ATCC 25922 = assay type: cell-based; conditions: ATCC 25922
Method: as §2

K. pneumoniae ATCC 13822 = assay type: cell-based; conditions: ATCC 13822
Method: as §2

A. baumannii NCTC 13424 = assay type: cell-based; conditions: NCTC 13424
Method: as §2

HK-2 cells = test: In vitro renal cell toxicity assay (HK-2); assay type: cell-based
Method: The in vitro renal cell toxicity assay was performed according to the following protocol. […] Cells were seeded at 7,500 cells per well in 96-well plates and allowed to adhere overnight. […] Water and DMSO levels were kept constant at 5% and 0.5% respectively. The test compounds were incubated with cells for 24 h at 37° C. 5% CO2 in a humidified atmosphere. […] Media only background values were subtracted before the data was analysed using GraphPad Prism. Individual values were normalised to the vehicle control wells for each compound. Compound concentration values were plotted as log values to enable a dose-response curve to be fitted. The bottom of the curve was constrained to zero and IC50 values were determined. IC50 values are expressed relative to that for PMB in the same experiment. Where multiple determinations have been made, median values are presented.

[1] = Kidney drug level after subcutaneous dose in mouse; assay type: in vivo; conditions: mouse, in vivo; for tissue level at time at 4 h / Drug Level in Kidney (μg/g kidney, 4 h): sc, 17.2 mg/kg
Method: Four hours after dosing the animals were euthanised and kidneys removed, trimmed of fat and connective tissue, weighed and immediately snap-frozen. After thawing at room temperature, pairs of kidneys from each animal were placed in 2 mL conical tubes containing pre-weighed ceria-stabilised zirconium oxide beads. […] After 10 min. centrifugation at 13,000 rpm and 6° C., 200 μl of the supernatants were transferred into glass inserts and analysed by LC-MS-MS.

MIC P. aeruginosa CCUG 59347 (P. aeruginosa CCUG 59347) [µg/mL] | MIC K. pneumoniae CA64 (K. pneumoniae CA64) [µg/mL] | MIC E. coli CA58 (E. coli CA58) [µg/mL] | MIC P. aeruginosa ATCC 27853 (P. aeruginosa ATCC 27853) [µg/mL] | MIC E. coli ATCC 25922 (E. coli ATCC 25922) [µg/mL] | MIC K. pneumoniae ATCC 13822 (K. pneumoniae ATCC 13822) [µg/mL] | MIC A. baumannii NCTC 13424 (A. baumannii NCTC 13424) [µg/mL] | tissue level at time at 4 h [1] [ng/g] | Drug Level in Kidney (μg/g kidney, 4 h) [1] [μg/g kidney] | Structure (SMILES) | HK-2 rel to PMB (HK-2 cells) | Cytotoxicity (measured IC50 relative to that recorded for Polymyxin B) (HK-2 cells) | 4 hr kidney level/rel. cytotoxicity [1]
0.5 (≈ 0.453 µM) | 2 (≈ 1.81 µM) | 16 (≈ 14.5 µM) | 0.5 (≈ 0.453 µM) | 0.25 (≈ 0.226 µM) | 0.25 (≈ 0.226 µM) | – | – | – | CC[C@@H]1NC(=O)[C@@H](CC(C)C)NC(=O)[C@H](CCN)NC(=O)[C@@H](NC(=O)[C@H](CN)NC(=O)[C@@H](NC(=O)C[C@@H](CN)c2cccc(CC(C)C)c2)[C@@H](C)O)CCNC(=O)[C@H]([C@@H](C)O)NC(=O)[C@H](CCN)NC(=O)[C@H](CCN)NC1=O [Example 27, (R)-4-amino-3-(3- isobutylphenyl)butanoyl- Thr- Dap- Cyclo[Dab-Dab-DLeu- Abu-Dab-Dab-Thr]] (X22-T[Dap][Dab][Dab][dL][Abu][Dab][Dab]T; lactam 3-C) | – | – | –
0.25 (≈ 0.224 µM) | 8 (≈ 7.16 µM) | 16 (≈ 14.3 µM) | 0.25 (≈ 0.224 µM) | – | – | 0.06 (≈ 0.0537 µM) | 408000 | – | CCCC[C@H]1NC(=O)[C@H](CCN)NC(=O)[C@@H](NC(=O)[C@H](CN)NC(=O)[C@@H](NC(=O)C[C@H](CN)c2cc(Cl)cc(Cl)c2)[C@@H](C)O)CCNC(=O)[C@H]([C@@H](C)O)NC(=O)[C@H](CCN)NC(=O)[C@H](CCN)NC(=O)[C@H](CC)NC1=O [Example 28, (S)-4-amino-3-(3,5- dichlorophenyl)butanoyl- Thr-Dap- Cyclo[Dab-Dab- DnorLeu-Abu-Dab- Dab-Thr]] (X18-T[Dap][Dab][Dab][dNle][Abu][Dab][Dab]T; lactam 3-C) | 68.5 | – | –
0.5 (≈ 0.442 µM) | 16 (≈ 14.2 µM) | 8 (≈ 7.08 µM) | 0.25 (≈ 0.221 µM) | – | – | 0.06 (≈ 0.0531 µM) | 252000 | – | CC[C@@H]1NC(=O)[C@@H](CC(C)C)NC(=O)[C@H](CCN)NC(=O)[C@@H](NC(=O)[C@H](CN)NC(=O)[C@@H](NC(=O)C[C@H](CN)c2cccc(-c3ccsc3)c2)[C@@H](C)O)CCNC(=O)[C@H]([C@@H](C)O)NC(=O)[C@H](CCN)NC(=O)[C@H](CCN)NC1=O [Example 30, (S)-4-amino-3-(3- (thiophen-3-yl)phenyl)butanoyl- Thr-Dap-Cyclo[Dab- Dab-DLeu-Abu-Dab- Dab-Thr]] (X14-T[Dap][Dab][Dab][dL][Abu][Dab][Dab]T; lactam 3-C) | 37.5 | – | –
0.25 (≈ 0.221 µM) | 4 (≈ 3.54 µM) | 16 (≈ 14.2 µM) | 0.25 (≈ 0.221 µM) | – | 0.25 (≈ 0.221 µM) | – | – | – | CC[C@@H]1NC(=O)[C@@H](CC(C)C)NC(=O)[C@H](CCN)NC(=O)[C@@H](NC(=O)[C@H](CN)NC(=O)[C@@H](NC(=O)C[C@@H](CN)c2cccc(-c3ccsc3)c2)[C@@H](C)O)CCNC(=O)[C@H]([C@@H](C)O)NC(=O)[C@H](CCN)NC(=O)[C@H](CCN)NC1=O [Example 31, (R)-4-amino-3-(3- (thiophen-3-yl)phenyl)butanoyl- Thr-Dap-Cyclo[Dab- Dab-DLeu-Abu-Dab- Dab-Thr]] (X23-T[Dap][Dab][Dab][dL][Abu][Dab][Dab]T; lactam 3-C) | – | – | –
– | – | – | – | – | – | – | – | 533 | CC(C)C[C@@H]1NC(=O)[C@@H](Cc2ccccc2)NC(=O)[C@H](CCN)NC(=O)[C@@H](NC(=O)[C@H](CN)NC(=O)[C@@H](NC(=O)[C@H](CCN)c2ccc(Cl)cc2)[C@@H](C)O)CCNC(=O)[C@H]([C@@H](C)O)NC(=O)[C@H](CCN)NC(=O)[C@H](CCN)NC1=O [reference compound] (X24-T[Dap][Dab][Dab][dF]L[Dab][Dab]T; lactam 3-C) | – | 4.8 | 111
– | – | – | – | – | – | – | – | 589 | CC(C)C[C@@H]1NC(=O)[C@@H](Cc2ccccc2)NC(=O)[C@H](CCN)NC(=O)[C@@H](NC(=O)[C@H](CN)NC(=O)[C@@H](NC(=O)[C@H](CCN)c2cccc(Cl)c2)[C@@H](C)O)CCNC(=O)[C@H]([C@@H](C)O)NC(=O)[C@H](CCN)NC(=O)[C@H](CCN)NC1=O [reference compound] (X25-T[Dap][Dab][Dab][dF]L[Dab][Dab]T; lactam 3-C) | – | 5.1 | 115

— patent publication US12528837B2, “Aryl substituted polymyxin derivatives” (priority 2018, dated 2026)
